This note sets out measurements from ChEMBL document CHEMBL1201862, “PubChem BioAssay data set” (2004).

Broadly, the EC50 is the midpoint of the concentration-response curve. In general, CC50 refers to the concentration giving 50% cytotoxicity. The term IC50 denotes the point on the concentration scale where inhibition reaches its midpoint. The term AC50 denotes the concentration at which the activity in the assay is half-maximal.

Activity calls are given as the source filed them.

Assay [1] deals with BJ. Briefly: cytotoxicity toward BJ-TERT fibroblasts, dose response, cell-based, RAS-independent, luminescence (AID 1933). The note with it: Homo sapiens. In kind it is functional.
Assay [2] has as its system BJ. Briefly: cells. In kind it is functional, cell-based. The note with it: Homo sapiens.
A further assay concerns the target Ion channel NompC (Danio rerio, UniProt Q7T1G6). Kind of assay: Dose response cell-based high-throughput screening assay for agonists of the transient receptor potential channel N1 (TRPN1). [Related pubchem assays (depositor defined):AID1424, AID1448]. In kind it is functional.
Assay [3] is described as follows: inhibitors of intracellular T. cruzi replication, confirmation, NIH3T3 host cells, beta-gal luminescence (AID 2044).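 Note: intracellular parasites grown in NIH/3T3 mouse fibroblasts as host cells; luminescent beta-galactosidase reporter signal from transgenic T. cruzi replicating inside host cells; inhibitors lower the luminescence signal.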 In kind it is functional, cell-based.
Another assay has as its target Mucolipin-3 (Homo sapiens, UniProt Q8TDD5). Briefly: Fluorescence counterscreen assay for […] agonists: dose response cell-based high-throughput screening assay to identify agonists of the transient receptor potential channel ML3 (TRPML3). [Related pubchem assays: 1424, 1448 ]. In kind it is functional. For orientation: A counterscreen serves to expose hits that act by an unwanted route or on another target.

The nature of assay [4]: cytotoxicity toward NIH3T3 fibroblasts, dose response, counter-screen, cell-based, ATP luminescence, mouse fibroblasts (AID 2010).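 Note: cells exposed to compound for about 90 hours before reading.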 In kind it is functional.
Assay [5] has as its system BJ. Briefly: cytotoxicity toward BJ-TERT-LT-ST fibroblasts, dose response, cell-based, RAS-independent, luminescence (AID 1935).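 Note: BJ fibroblasts immortalized with TERT plus LT and ST oncogenes.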 In kind it is functional. The note with it: Homo sapiens.
The nature of assay [6]: cytotoxicity toward DRD oncogenic fibroblasts, dose response, cell-based, non-viral oncogenic, luminescence (AID 1934). In kind it is functional. The note with it: Homo sapiens.
The nature of assay [7]: THP-1 cell cytotoxicity, dose response, cytotoxicity control for non-replicating M. tuberculosis project (AID 489025). In kind it is functional.
The nature of assay [8]: HepG2 cell cytotoxicity, dose response, cytotoxicity control for non-replicating M. tuberculosis project (AID 489018). In kind it is functional. Particulars: Mycobacterium tuberculosis.
For assay [9], the target named is Eukaryotic translation initiation factor 4E (Mus musculus, UniProt P63073). Briefly: eIF4E–eIF4G protein interaction inhibitors, dose response, biochemical, TR-FRET (AID 855).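 Note: potency for disrupting eIF4E binding to eIF4GI seen as loss of FRET.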 In kind it is functional. (In general: TR-FRET usually uses a lanthanide donor and a delayed reading to cut background.)
A short description of assay [10]: Vero E6 cell cytotoxicity, dose response, cytotoxicity control for non-replicating M. tuberculosis project, secondary assay (AID 492998). The note with it: Vero C1008. In kind it is functional, VeroE6.
A further assay in a line: cells. In kind it is functional.
Assay [11] is described as follows: Shn3 3'UTR reporter inhibitors, dose response, cell-based, Clone20 osteoblasts, firefly luciferase, cherry-picked (AID 624132).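 Note: firefly luciferase luminescence from reporter carrying the Shn3 3'UTR in osteoblasts.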 In kind it is functional.
Assay [12] in a line: HepG2 cell cytotoxicity, dose response, cytotoxicity control for Shn3 inhibitor project, CellTiter-Glo, cherry-picked (AID 624134). In kind it is functional, cell-based.
The nature of assay [13]: control 3'UTR Renilla luciferase suppression, dose response, counter-screen for Shn3 inhibitor project, cell-based, Clone20-Shn3RL, cherry-picked (AID 624133). In kind it is functional.
The target in assay [14] is T1, Delta-type opioid receptor (Homo sapiens, UniProt P41143). Briefly: HTS Image-Based Screen for Antagonists of the DOR Receptor. [Related pubchem assays (depositor defined):AID1777, AID1785, AID1786, AID2133]. In kind it is functional.
Assay [15] deals with T2, Mu-type opioid receptor (Homo sapiens, UniProt P35372). Briefly: HTS Image-Based Screen for Agonists of the MOR Receptor. [Related pubchem assays (depositor defined):AID1777, AID1785, AID1786, AID2133]. In kind it is functional.
Assay [16] concerns the target T1, Delta-type opioid receptor. Kind of assay: HTS Image-Based Screen for Agonists of the DOR Receptor. [Related pubchem assays (depositor defined):AID1777, AID1786, AID2133]. In kind it is functional.
Assay [17] addresses T3, Kappa-type opioid receptor (Homo sapiens, UniProt P41145). In kind it is functional.
For another assay, the target named is Beta-galactosidase (Escherichia coli, UniProt Q8VNN2). In kind it is functional.
Assay [18] addresses T3, Kappa-type opioid receptor. In kind it is functional. This is another data set of the same source.
For assay [19], the target named is T2, Mu-type opioid receptor. Briefly: MOR agonists by imaging, SAR follow-up, image-based (AID 2352). In kind it is functional.
Assay [20] has as its target T1, Delta-type opioid receptor. Kind of assay: DOR agonists, SAR follow-up, image-based (AID 2370). In kind it is functional.
For assay [21], the target named is T3, Kappa-type opioid receptor. Kind of assay: KOR antagonists by imaging, SAR follow-up, image-based (AID 2348). In kind it is functional.
For assay [22], the target named is T2, Mu-type opioid receptor. Briefly: MOR antagonists, SAR follow-up, image-based (AID 2420).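 Note: compounds added before stimulation of receptor with agonist DAMGO.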 In kind it is functional.
Assay [23] addresses T3, Kappa-type opioid receptor. Kind of assay: KOR agonist analogs, imaging readout, SAR follow-up, image-based (AID 2359). In kind it is functional.
Assay [24] addresses T1, Delta-type opioid receptor. Briefly: DOR antagonists, SAR follow-up, image-based (AID 2357). In kind it is functional.
Assay [25] concerns the target T3, Kappa-type opioid receptor. Kind of assay: kappa opioid receptor blockers, cell-based, luminescence, beta-arrestin, SAR follow-up (AID 2285). In kind it is functional.
The target in assay [26] is T4, RNA-binding protein pos-1 (Caenorhabditis elegans, UniProt G5EF15).
T4 sequence (G5EF15 whole entry): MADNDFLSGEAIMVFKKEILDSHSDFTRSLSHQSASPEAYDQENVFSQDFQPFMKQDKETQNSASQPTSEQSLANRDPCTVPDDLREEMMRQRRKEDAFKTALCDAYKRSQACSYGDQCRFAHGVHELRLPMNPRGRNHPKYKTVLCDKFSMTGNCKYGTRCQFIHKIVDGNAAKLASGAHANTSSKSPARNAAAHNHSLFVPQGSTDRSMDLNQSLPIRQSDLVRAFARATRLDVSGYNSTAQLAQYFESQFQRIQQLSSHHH
Kind of assay: inhibitors of POS-1/mex-3 RNA binding, dose response, biochemical, fluorescence polarization (AID 1964).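 Note: purified POS-1 fused to maltose binding protein made in E. coli; potency of compounds blocking POS-1 binding to fluorescent RNA.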

Assay [27] has as its target T5, Runt-related transcription factor 1/Core-binding factor subunit beta (Homo sapiens, UniProt Q01196+Q13951). Briefly: inhibitors of RUNX1 Runt–CBFb-SMMHC binding, primary screen, biochemical, FRET, Cerulean-Runt, Venus-CBFb-SMMHC, uHTS (AID 1434).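 Note: partner is the CBFb-SMMHC leukemia fusion protein rather than wild-type CBFb.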 In kind it is protein assay.
Assay [28] addresses T6, Zinc finger protein mex-5 (Caenorhabditis elegans, UniProt Q9XUB2).
T6 sequence (Q9XUB2 whole entry): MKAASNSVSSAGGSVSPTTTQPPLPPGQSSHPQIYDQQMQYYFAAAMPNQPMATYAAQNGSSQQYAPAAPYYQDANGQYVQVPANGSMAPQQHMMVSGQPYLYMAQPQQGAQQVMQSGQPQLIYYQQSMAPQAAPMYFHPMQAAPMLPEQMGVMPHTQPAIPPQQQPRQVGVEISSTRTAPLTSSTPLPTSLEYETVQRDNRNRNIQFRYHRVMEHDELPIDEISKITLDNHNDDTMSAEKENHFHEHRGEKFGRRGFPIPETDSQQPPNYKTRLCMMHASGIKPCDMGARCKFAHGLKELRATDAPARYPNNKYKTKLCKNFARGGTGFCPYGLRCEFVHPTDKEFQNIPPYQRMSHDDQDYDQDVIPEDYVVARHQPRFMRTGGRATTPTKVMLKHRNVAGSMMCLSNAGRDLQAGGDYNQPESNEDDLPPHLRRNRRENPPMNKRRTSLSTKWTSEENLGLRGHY
Kind of assay: MEX-5/TCR-2 RNA interaction inhibitors, dose response, biochemical, C. elegans, fluorescence polarization (AID 1960). A general note: Polarisation of emitted light reports the rotation of a fluorescent probe.

Assay [29] deals with T5, Runt-related transcription factor 1/Core-binding factor subunit beta. Kind of assay: inhibitors of RUNX1 Runt–CBFb-SMMHC binding, biochemical, TR-FRET (AID 1438). In kind it is protein assay.
In another assay the target is Troponin, cardiac muscle (Homo sapiens, UniProt P19429+P45379+P63316). Kind of assay: Fluorescence-based biochemical high throughput dose response assay for activators of the calcium sensitivity of cardiac Regulated Thin Filaments (RTF). [Related pubchem assays (depositor defined):AID493008, AID493018, AID504382, AID504383]. In kind it is protein-complex assay.

On to `Cc1cc(N2CCCCC2)nc(NCc2ccccc2)n1`, for which the EC50 in the assay with BJ [1] was 17.4 µM (active); with BJ [2], 21.4 µM (active); on Ion channel NompC, > 3.32 µM (inactive); in assay [3] it was 2.04 µM (active); on Mucolipin-3 it was > 3.32 µM (active); in [4], > 60 µM (not active). Also, the half-maximal effective concentration (EC50) in the assay on BJ [5] was > 75 µM (inconclusive); in [6], 25.9 µM (active). Also, the CC50 was 8.56 µM (active) in assay [7], > 20 µM (active) in [8] and > 20 µM (active) in assay [10]. For the same compound, the IC50 in assay [9] was > 64 µM (inactive); in “cells” it was 40.2 µM (active). Also, the results for the AC50 in [11], in assay [12] and in assay [13] were 4.01 µM (active), 54.8 µM (active) and 6.27 µM (active), respectively.
With `CCOc1ccc(C(=O)NC2CC3CCCC(C2)N3Cc2ccccc2)cc1` (centres undefined), the IC50 in assay [14] is > 32 µM (inactive); in assay [17] it was 7.52 µM (active); in [18], 14.8 µM; in [21] it was > 32 µM (inactive); on Mu-type opioid receptor [22], > 32 µM (inactive); in assay [24] it was > 32 µM (inactive). The IC50 in assay [25] was > 10 µM (inactive). In addition, the EC50 on Mu-type opioid receptor [15] is > 32 µM (inactive); in assay [16], > 32 µM (inactive); on Beta-galactosidase it was > 31.5 µM (inactive); at Mu-type opioid receptor [19] it was > 32 µM (inactive); in assay [20], > 32 µM (inactive); in assay [23] it was > 32 µM (inactive).
As to `CC(=O)c1ccc2cccc3c2c1NC(C)=N3`, the EC50 in [26] is 9.79 µM (active); in [28], 6.57 µM (active); at Troponin, cardiac muscle it was 17.3 µM (inactive). Moreover, the values for the IC50 in assay [27] and in assay [29] were 3.05 µM (active) and > 100 µM (inactive), respectively.
